The test system of the experiment is Euphorbia heterophylla (EPHHL). The experiment can be described thus: Ex 4 pre-emergence, visual % damage. It counts as in vivo. How it is done:
DINAMIC® (amicarbazone) in combination of various herbicides listed in Table 4-1 were tested for herbicidal activity.
The herbicidal effect was observed by comparing the extent of Euphorbia heterophylla (EPHHL) treated with the compounds against that occurring in similar non-treated control. Herbicidal effect was visually assessed and recorded at 14, 23, 36, 49, 65 and 77 days after treatment (DAT). Damage by the herbicidal compositions was evaluated with reference to a scale of 0% to 100% in comparison with untreated control. 0% means no damage and 100% means complete destruction of the plants.
The theoretical herbicidal effect index were calculated based on Colby and the values were indicated in bracket ( ) in Table 4-2. Both of the herbicidal mixtures (amicarbazone+Karmex) and (amicarbazone+Sencor) exert a greater herbicidal action than expected according to Colby on the basis of the observed effects of the individual components when used alone. […] The underlined values in the table indicate that the observed weed killing is greater than calculated from the Colby formula and therefore indicates a synergistic weed killing effect or activity.

We go through one molecule from US11432549B2, “Carbamoyl triazolinone based herbicide combinations and method of use” (Arysta LifeScience Corporation, priority 2009, dated 2022).

With `CC(C)c1nn(C(=O)NC(C)(C)C)c(=O)n1N` [Amicarbazone, 4-amino-5-isopropyl-2-(tert-butyl-aminocarbonyl)-2,4-dihydro-3H-1,2,4-triazol-3-one], the percentage control by setting is: (14 DAT, kg/ha or L/ha: Amicarbazone 1.00, Gesapax 3.00, Karmex 3.00, Provence 0.15, Sencor 2.00, alone or Amicarbazone + partner) 96%; (14 DAT, kg/ha or L/ha: Amicarbazone 1.50, Gesapax 5.00, Karmex 5.00, Provence 0.20, Sencor 3.50, alone) 98%; (23 DAT, kg/ha or L/ha: Amicarbazone 1.00, Gesapax 3.00, Karmex 3.00, Provence 0.15, Sencor 2.00, alone or Amicarbazone + partner) 96%; (23 DAT, kg/ha or L/ha: Amicarbazone 1.50, Gesapax 5.00, Karmex 5.00, Provence 0.20, Sencor 3.50, alone) 98%; (36 DAT, kg/ha or L/ha: Amicarbazone 1.00, Gesapax 3.00, Karmex 3.00, Provence 0.15, Sencor 2.00, alone or Amicarbazone + partner) 96%; (36 DAT, kg/ha or L/ha: Amicarbazone 1.50, Gesapax 5.00, Karmex 5.00, Provence 0.20, Sencor 3.50, alone) 96%. Besides, the percentage control reads like this: (49 DAT, kg/ha or L/ha: Amicarbazone 1.00, Gesapax 3.00, Karmex 3.00, Provence 0.15, Sencor 2.00, alone or Amicarbazone + partner) 79%; (49 DAT, kg/ha or L/ha: Amicarbazone 1.50, Gesapax 5.00, Karmex 5.00, Provence 0.20, Sencor 3.50, alone) 96%; (65 DAT, kg/ha or L/ha: Amicarbazone 1.00, Gesapax 3.00, Karmex 3.00, Provence 0.15, Sencor 2.00, alone or Amicarbazone + partner) 79%; (65 DAT, kg/ha or L/ha: Amicarbazone 1.50, Gesapax 5.00, Karmex 5.00, Provence 0.20, Sencor 3.50, alone) 96%; (77 DAT, kg/ha or L/ha: Amicarbazone 1.00, Gesapax 3.00, Karmex 3.00, Provence 0.15, Sencor 2.00, alone or Amicarbazone + partner) 75%; (77 DAT, kg/ha or L/ha: Amicarbazone 1.50, Gesapax 5.00, Karmex 5.00, Provence 0.20, Sencor 3.50, alone) 90%.
